# Laboratory results from patent EP1401467B3, “ALPHA-FETOPROTEIN PEPTIDES AND USES THEREOF” (Albany Medical College, priority 2001, dated 2003).
# “Also recorded” adds a separate entry of the source. Square brackets hold non-standard residues; d marks the D form. Peptide text beside a SMILES is read from it. Hyp = O=C(O)[C@@H]1C[C@@H](O)CN1
# Assays:
# estrogen receptor = target: T1, estrogen receptor (Oryctolagus cuniculus, UniProt G1SML6); conditions: at a concentration of 100 nM; rabbit uterine cytosol
# T1 sequence (G1SML6 1-598): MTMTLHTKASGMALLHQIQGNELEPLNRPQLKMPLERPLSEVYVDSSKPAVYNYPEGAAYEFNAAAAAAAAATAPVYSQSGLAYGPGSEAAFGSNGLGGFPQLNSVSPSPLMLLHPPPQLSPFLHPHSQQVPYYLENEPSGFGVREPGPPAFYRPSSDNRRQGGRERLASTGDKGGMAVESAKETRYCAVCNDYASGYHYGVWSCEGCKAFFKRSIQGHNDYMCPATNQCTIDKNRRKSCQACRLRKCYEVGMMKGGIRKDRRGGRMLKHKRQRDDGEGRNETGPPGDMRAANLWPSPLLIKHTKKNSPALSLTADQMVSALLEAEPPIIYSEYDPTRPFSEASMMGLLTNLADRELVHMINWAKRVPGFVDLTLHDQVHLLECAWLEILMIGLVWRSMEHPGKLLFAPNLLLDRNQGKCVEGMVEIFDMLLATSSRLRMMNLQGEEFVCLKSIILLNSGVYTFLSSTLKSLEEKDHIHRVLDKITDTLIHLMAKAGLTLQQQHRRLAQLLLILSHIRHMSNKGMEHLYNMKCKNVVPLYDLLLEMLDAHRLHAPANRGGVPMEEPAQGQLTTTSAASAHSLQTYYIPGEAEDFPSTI
# Procedure: (§1) Peptide or vehicle control was injected i.p. into immature female Swiss mice. One hour later 0.5 µg of E2 or vehicle control was injected i.p. into these mice. Twenty-two hours later, uteri were dissected and weighed. Percent inhibition of E2-stimulated growth of uterus by peptide was calculated as described in Materials and Methods. There were five to eight replicate mice per treatment group. (Figure 1a) Peptide dose-response. […] Peptide, SEQ ID NO:2: […], was fractionated using a Waters SW 200 gel-filtration column using phosphate buffered saline pH 7.4 as mobil phase. Fractions which had significant UV absorbance at 230 nm were collected at twenty second intervals. The first fraction (Frac I), the last fraction (Frac III), and the starting material (UnFrac) were all tested in the immature mouse uterine growth assay as described in Figures 1a and 1b. […] (Figure 3a) dose-response. […] (Figure 4a) dose-response. […] There were five to eight replicate mice per treatment group. Estrogen was provided via a slow release pellet implanted subcutaneously. Peptide was given twice a day i.p. at a dose of 1 µg per mouse. Tumor volumes in each mouse were measured at the time of tumor implantation and at 10-day intervals thereafter during survival laparotomies. […] (Figure 6a) dose-response. […] Experimental protocol is described in legend to Figure 5 and Materials and Methods. […] Rabbit uterine cytosol was used as a source of estrogen receptor. All incubations were performed in triplicate, each containing 100 µl of cytosol, 20 µl of 10 nM 6,7-^3Hestradiol (50 Ci/mmol), and 80 µl of test agent at the final concentrations indicated on the abscissa. Details of the assay are described in Materials and Methods. • Concentration of [^3H] E2-complex with receptor in the presence of different concentrations of test agent is expressed as a percentage of the amount of complex formed in the absence of test agent; • Figures 9a and 9b illustrate the effect of AFP-derived peptide on growth of estrogen-receptor-positive MCF-7 and MCF-7/Tam.human breast cancer xenografts. Tumors were implanted as described in Materials and Methods. […] Tumor volumes in each mouse were measured at the time of tumor implantation, again at day 15 after tumor implantation during survival laparotomy and again at day 30 after tumor implantation during necropsy. There was a minimum of 5 mice per group. (Figure 9a) MCF-7 tumors. […] See legend to Figures 9a and 9b for experimental protocol. […] See legend to Figures 9a and 9b for experimental protocol. […] Rabbit uterine cytosol was used as a source of estrogen receptor. All incubations were performed in triplicate, each containing 100 µl of cytosol, 20 µl of 10 nM 6,7-^3H estradiol (50 Ci/mmol), and 80 µl of test agent at the final concentrations indicated on the abscissa. Concentration of [^3H] […] The assay procedure is described in the Materials and Methods.
# [1] = system: MCF-7 human breast cancer xenografts; test: Human breast cancer xenograft assay, MCF-7; assay type: in vivo; conditions: E2 implant, 30-day observation
# Procedure: Peptide or vehicle control was injected i.p. into immature female Swiss mice. One hour later 0.5 µg of E2 or vehicle control was injected i.p. into these mice. Twenty-two hours later, uteri were dissected and weighed. Percent inhibition of E2-stimulated growth of uterus by peptide was calculated as described in Materials and Methods. There were five to eight replicate mice per treatment group. (Figure 1a) Peptide dose-response. […] Peptide, SEQ ID NO:2: […], was fractionated using a Waters SW 200 gel-filtration column using phosphate buffered saline pH 7.4 as mobil phase. Fractions which had significant UV absorbance at 230 nm were collected at twenty second intervals. The first fraction (Frac I), the last fraction (Frac III), and the starting material (UnFrac) were all tested in the immature mouse uterine growth assay as described in Figures 1a and 1b. […] (Figure 3a) dose-response. […] (Figure 4a) dose-response. […] There were five to eight replicate mice per treatment group. Estrogen was provided via a slow release pellet implanted subcutaneously. Peptide was given twice a day i.p. at a dose of 1 µg per mouse. Tumor volumes in each mouse were measured at the time of tumor implantation and at 10-day intervals thereafter during survival laparotomies. […] (Figure 6a) dose-response. […] Experimental protocol is described in legend to Figure 5 and Materials and Methods. […] Rabbit uterine cytosol was used as a source of estrogen receptor. […] E2-complex with receptor in the presence of different concentrations of test agent is expressed as a percentage of the amount of complex formed in the absence of test agent; • Figures 9a and 9b illustrate the effect of AFP-derived peptide on growth of estrogen-receptor-positive MCF-7 and MCF-7/Tam.human breast cancer xenografts. […] Tumor volumes in each mouse were measured at the time of tumor implantation, again at day 15 after tumor implantation during survival laparotomy and again at day 30 after tumor implantation during necropsy. […]
# [2] = system: E2-stimulated growth of immature mouse uterus; conditions: for dose of maximal inhibitory activity on estrogen-stimulated growth of immature mouse uterus: i.p., dose-response
# Procedure: as §1
# [3] = Shelf-life / storage studies of lyophilized peptide, read out in the immature mouse uterine growth assay; assay type: physicochemical; conditions: for shelf-life: storage in the lyophilized state at -20°C, activity tested in immature mouse uterine growth assay
# Procedure: Peptide or vehicle control was injected i.p. into immature female Swiss mice. One hour later 0.5 µg of E2 or vehicle control was injected i.p. into these mice. Twenty-two hours later, uteri were dissected and weighed. Percent inhibition of E2-stimulated growth of uterus by peptide was calculated as described in Materials and Methods. There were five to eight replicate mice per treatment group. (Figure 1a) Peptide dose-response. […] Peptide, SEQ ID NO:2: […], was fractionated using a Waters SW 200 gel-filtration column using phosphate buffered saline pH 7.4 as mobil phase. Fractions which had significant UV absorbance at 230 nm were collected at twenty second intervals. The first fraction (Frac I), the last fraction (Frac III), and the starting material (UnFrac) were all tested in the immature mouse uterine growth assay as described in Figures 1a and 1b. […] (Figure 3a) dose-response. […] (Figure 4a) dose-response. […] There were five to eight replicate mice per treatment group. Estrogen was provided via a slow release pellet implanted subcutaneously. Peptide was given twice a day i.p. at a dose of 1 µg per mouse. Tumor volumes in each mouse were measured at the time of tumor implantation and at 10-day intervals thereafter during survival laparotomies. […] (Figure 6a) dose-response. […] Experimental protocol is described in legend to Figure 5 and Materials and Methods. […] Rabbit uterine cytosol was used as a source of estrogen receptor. All incubations were performed in triplicate, each containing 100 µl of cytosol, 20 µl of 10 nM 6,7-^3Hestradiol (50 Ci/mmol), and 80 µl of test agent at the final concentrations indicated on the abscissa. Details of the assay are described in Materials and Methods. • Concentration of [^3H] E2-complex with receptor in the presence of different concentrations of test agent is expressed as a percentage of the amount of complex formed in the absence of test agent; • Figures 9a and 9b illustrate the effect of AFP-derived peptide on growth of estrogen-receptor-positive MCF-7 and MCF-7/Tam.human breast cancer xenografts. Tumors were implanted as described in Materials and Methods. […] Tumor volumes in each mouse were measured at the time of tumor implantation, again at day 15 after tumor implantation during survival laparotomy and again at day 30 after tumor implantation during necropsy. There was a minimum of 5 mice per group. (Figure 9a) MCF-7 tumors. […] See legend to Figures 9a and 9b for experimental protocol. […] See legend to Figures 9a and 9b for experimental protocol. […] Rabbit uterine cytosol was used as a source of estrogen receptor. All incubations were performed in triplicate, each containing 100 µl of cytosol, 20 µl of 10 nM 6,7-^3H estradiol (50 Ci/mmol), and 80 µl of test agent at the final concentrations indicated on the abscissa. […]
# [4] = mouse, in vivo
# [5] = system: MCF-7/Tam human breast cancer xenografts; test: Human breast cancer xenograft assay, tamoxifen-resistant MCF-7 subline; assay type: in vivo; conditions: tamoxifen 50 µg per mouse i.p. once a day; E2 implant; day 30
# Procedure: Peptide or vehicle control was injected i.p. into immature female Swiss mice. One hour later 0.5 µg of E2 or vehicle control was injected i.p. into these mice. Twenty-two hours later, uteri were dissected and weighed. Percent inhibition of E2-stimulated growth of uterus by peptide was calculated as described in Materials and Methods. There were five to eight replicate mice per treatment group. (Figure 1a) Peptide dose-response. […] Peptide, SEQ ID NO:2: […], was fractionated using a Waters SW 200 gel-filtration column using phosphate buffered saline pH 7.4 as mobil phase. Fractions which had significant UV absorbance at 230 nm were collected at twenty second intervals. […] Tumor volumes in each mouse were measured at the time of tumor implantation and at 10-day intervals thereafter during survival laparotomies. […] E2-complex with receptor in the presence of different concentrations of test agent is expressed as a percentage of the amount of complex formed in the absence of test agent; • Figures 9a and 9b illustrate the effect of AFP-derived peptide on growth of estrogen-receptor-positive MCF-7 and MCF-7/Tam.human breast cancer xenografts. […] Tumor volumes in each mouse were measured at the time of tumor implantation, again at day 15 after tumor implantation during survival laparotomy and again at day 30 after tumor implantation during necropsy. […]
# [6] = system: T47D human breast cancer xenografts; test: Human breast cancer xenograft assay, T47D; assay type: in vivo; conditions: tamoxifen
# [7] = system: MDA-MB-231 human breast cancer xenografts; test: Human breast cancer xenograft assay, MDA-MB-231; assay type: in vivo; conditions: tamoxifen 50 µg per mouse i.p. once a day
# [8] = system: MCF-7 human breast cancer xenografts; conditions: earlier study (Bennett et al. 1998); cited from earlier work
structure (smiles),measurement,setting,value
O=C(c1ccc(OCCN2CCCCC2)cc1)c1c(-c2ccc(O)cc2)sc2cc(O)ccc12 [raloxifene],inhibition of estradiol binding to its receptor,estrogen receptor,completely inhibited
"CSCC[C@@H]1NC(=O)[C@H](CCC(=O)O)NC(=O)[C@H](CCC(N)=O)NC(=O)CNC(=O)[C@@H]2C[C@@H](O)CN2C(=O)[C@H](CC(N)=O)NC(=O)[C@H](C(C)C)NC(=O)[C@@H]2C[C@@H](O)CN2C(=O)[C@H]([C@@H](C)O)NC1=O [Cyclo-(SEQ ID NO:5: EMTOVNOGQ), Cyclo-(EMTOVNOGQ)] (cyclo(EMT[Hyp]VN[Hyp]GQ))",estrogen-dependent growth of MCF-7 human breast cancer xenografts (tumor volume vs E2 alone),"[1]; peptide 1 µg per mouse i.p. twice a day, SCID mice",significantly inhibited
same,anti-estrotrophic activity,[2]; at doses higher than 10 µg/mouse,retained significant anti-estrotrophic activity
same,dose of maximal inhibitory activity on estrogen-stimulated growth of immature mouse uterus,[2],10 µg per mouse
same,shelf-life,[3],Indefinite shelflife; also recorded: indefinite shelf-life
CSCC[C@@H]1NC(=O)[C@H](CCC(=O)O)NC(=O)[C@H](CCC(N)=O)NC(=O)CNC(=O)[C@@H]2CCCN2C(=O)[C@H](CC(N)=O)NC(=O)[C@H](C(C)C)NC(=O)[C@@H]2CCCN2C(=O)[C@H]([C@@H](C)O)NC1=O (cyclo(EMTPVNPGQ)),inhibition of estrogen-stimulated growth of immature mouse uterus,[2]; at the optimal dose of the linear peptides (1 µg),very active
same,dose of maximal inhibitory activity on estrogen-stimulated growth of immature mouse uterus,[2],10 µg per mouse
same,biological activity after prolonged storage,[3]; after storage of six months,"significant, albeit not optimal, biological activity"
same,shelf-life,[3],somewhat extended but still rather limited shelf-life
same,biological activity after treatment with 4 M urea,"[3]; stored/aged peptide, brief treatment with 4 M urea",restored the optimal biological activity
"CSCC[C@H](NC(=O)[C@@H](N)CCC(=O)O)C(=O)N[C@H](C(=O)N1C[C@H](O)C[C@H]1C(=O)N[C@H](C(=O)N[C@@H](CC(N)=O)C(=O)N1C[C@H](O)C[C@H]1C(=O)NCC(N)=O)C(C)C)[C@@H](C)O [SEQ ID NO:4: EMTOVNOG, EMTOVNOG] (H-EMT[Hyp]VN[Hyp]G-NH2)",biological half-life,[4],two to three
CC/C(=C(\c1ccccc1)c1ccc(OCCN(C)C)cc1)c1ccccc1 [tamoxifen],estrogen-dependent growth of MCF-7 human breast cancer xenografts (tumor volume vs E2 alone),[1]; tamoxifen 50 µg per mouse i.p. once a day,prevented growth; also recorded: no increase in tumor volume
same,estrogen-dependent growth of MCF-7 human breast cancer xenografts (tumor volume vs E2 alone),"[1]; tamoxifen 50 µg per mouse i.p. once a day, listed as Tamoxifen",significantly different
same,growth of tamoxifen-resistant MCF-7 subline xenografts (tumor volume vs E2 alone),[5],resistant to tamoxifen in vivo; also recorded: only minimally effective
same,growth of ER+ T47D human breast cancer xenografts,[6],prevented growth
same,growth of ER- MDA-MB-231 human breast cancer xenografts,[7],Neither peptide nor tamoxifen were effective; also recorded: did not affect the growth
same,MCF-7 breast cancer xenograft growth,[8],stop MCF-7 breast cancer xenograft growth
